From ChEMBL document CHEMBL2150974 (J Med Chem, 2012)
The source made the active and inactive calls. No cut-off for these calls is given here.

Tests used:
[1] = target: Vascular endothelial growth factor receptor 2 (Homo sapiens) (UniProt P35968); experiment: Inhibition of VEGFR2 at 10 uM
[2] = target: T1, Mitogen-activated protein kinase 14 (Homo sapiens, UniProt Q16539); experiment: Inhibition of p38alpha by immunosorbent based kinase assay
[3] = target: Casein kinase II subunit alpha (Homo sapiens) (UniProt P68400); experiment: Inhibition of CK2alpha1 at 10 uM
[4] = target: T1, Mitogen-activated protein kinase 14; experiment: Inhibition of p38alpha-dependent TNFalpha production in human whole blood
[5] = target: Hepatocyte growth factor receptor (Homo sapiens) (UniProt P08581); experiment: Inhibition of MET at 10 uM
[6] = tested on: Serine/threonine-protein kinase B-raf (Homo sapiens), P15056 [V600E]; experiment: Inhibition of BRAF V600E mutant at 10 uM
[7] = target: Focal adhesion kinase 1 (Homo sapiens) (UniProt Q05397); experiment: Inhibition of FAK at 10 uM
[8] = target: T2, Serine/threonine-protein kinase PLK4 (Homo sapiens) (UniProt O00444); experiment: Inhibition of SAK at 10 uM
T2 sequence (whole entry): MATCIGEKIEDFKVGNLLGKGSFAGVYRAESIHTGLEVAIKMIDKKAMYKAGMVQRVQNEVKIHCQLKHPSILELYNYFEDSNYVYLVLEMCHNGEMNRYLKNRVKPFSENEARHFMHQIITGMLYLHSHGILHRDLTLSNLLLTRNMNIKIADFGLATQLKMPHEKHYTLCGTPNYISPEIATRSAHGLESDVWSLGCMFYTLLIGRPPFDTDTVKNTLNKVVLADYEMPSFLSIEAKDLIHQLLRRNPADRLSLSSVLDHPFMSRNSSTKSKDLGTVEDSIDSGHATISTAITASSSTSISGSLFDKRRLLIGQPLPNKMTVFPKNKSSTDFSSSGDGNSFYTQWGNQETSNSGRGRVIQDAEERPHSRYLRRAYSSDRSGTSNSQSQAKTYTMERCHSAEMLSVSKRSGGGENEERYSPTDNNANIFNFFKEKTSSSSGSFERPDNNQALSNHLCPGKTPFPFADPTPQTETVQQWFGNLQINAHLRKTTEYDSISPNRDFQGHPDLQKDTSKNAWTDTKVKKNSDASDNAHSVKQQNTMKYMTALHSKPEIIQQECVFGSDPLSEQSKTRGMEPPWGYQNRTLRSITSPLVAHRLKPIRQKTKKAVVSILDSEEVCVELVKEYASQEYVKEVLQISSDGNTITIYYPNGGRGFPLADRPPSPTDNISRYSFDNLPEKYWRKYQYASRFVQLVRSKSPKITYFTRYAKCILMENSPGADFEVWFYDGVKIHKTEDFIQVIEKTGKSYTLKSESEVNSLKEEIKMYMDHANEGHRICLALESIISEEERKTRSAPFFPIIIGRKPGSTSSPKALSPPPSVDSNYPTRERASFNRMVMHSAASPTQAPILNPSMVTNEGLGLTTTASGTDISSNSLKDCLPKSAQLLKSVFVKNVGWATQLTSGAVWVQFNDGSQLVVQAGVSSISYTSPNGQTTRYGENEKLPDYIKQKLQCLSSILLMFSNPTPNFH

[9] = target: Serine/threonine-protein kinase N1 (Homo sapiens) (UniProt Q16512); experiment: Inhibition of PRK1 at 10 uM
[10] = target: BDNF/NT-3 growth factors receptor (Homo sapiens) (UniProt Q16620); experiment: Inhibition of TRKB at 10 uM
[11] = target: Insulin-like growth factor 1 receptor (Homo sapiens) (UniProt P08069); experiment: Inhibition of IGF1R at 10 uM
[12] = target: Insulin receptor (Homo sapiens) (UniProt P06213); experiment: Inhibition of INSR at 10 uM
[13] = target: RAC-alpha serine/threonine-protein kinase (Homo sapiens) (UniProt P31749); experiment: Inhibition of AKT1 at 10 uM
[14] = target: Tyrosine-protein kinase receptor UFO (Homo sapiens) (UniProt P30530); experiment: Inhibition of AXL at 10 uM
[15] = target: Aurora kinase B (Homo sapiens) (UniProt Q96GD4); experiment: Inhibition of AuroraB at 10 uM
[16] = target: Serine/threonine-protein kinase PLK1 (Homo sapiens) (UniProt P53350); experiment: Inhibition of PLK1 at 10 uM
[17] = target: T3, NUAK family SNF1-like kinase 1 (Homo sapiens) (UniProt O60285); experiment: Inhibition of ARK5 at 10 uM
T3 sequence (whole entry): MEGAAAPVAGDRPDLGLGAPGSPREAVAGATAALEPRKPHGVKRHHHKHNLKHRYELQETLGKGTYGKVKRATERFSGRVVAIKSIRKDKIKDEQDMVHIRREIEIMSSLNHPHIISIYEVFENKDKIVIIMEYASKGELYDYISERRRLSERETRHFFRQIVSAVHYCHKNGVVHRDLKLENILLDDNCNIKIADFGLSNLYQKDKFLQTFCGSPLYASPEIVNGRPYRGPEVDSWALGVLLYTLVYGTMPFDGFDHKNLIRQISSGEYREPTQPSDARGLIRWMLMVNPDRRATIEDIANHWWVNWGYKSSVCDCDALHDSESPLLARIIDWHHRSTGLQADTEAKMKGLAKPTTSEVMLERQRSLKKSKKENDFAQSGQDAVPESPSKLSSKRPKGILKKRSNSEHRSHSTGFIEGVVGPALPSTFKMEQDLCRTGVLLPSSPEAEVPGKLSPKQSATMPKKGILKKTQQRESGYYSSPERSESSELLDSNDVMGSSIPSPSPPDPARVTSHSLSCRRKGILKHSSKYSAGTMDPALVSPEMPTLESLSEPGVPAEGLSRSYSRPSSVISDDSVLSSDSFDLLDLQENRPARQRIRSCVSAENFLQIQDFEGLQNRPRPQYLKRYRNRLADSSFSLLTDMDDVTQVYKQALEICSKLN

[18] = target: Proto-oncogene tyrosine-protein kinase Src (Homo sapiens) (UniProt P12931); experiment: Inhibition of SRC at 10 uM

Serine/threonine-protein kinase N1 (Homo sapiens), sequence (Q16512 2-942 limits assumed): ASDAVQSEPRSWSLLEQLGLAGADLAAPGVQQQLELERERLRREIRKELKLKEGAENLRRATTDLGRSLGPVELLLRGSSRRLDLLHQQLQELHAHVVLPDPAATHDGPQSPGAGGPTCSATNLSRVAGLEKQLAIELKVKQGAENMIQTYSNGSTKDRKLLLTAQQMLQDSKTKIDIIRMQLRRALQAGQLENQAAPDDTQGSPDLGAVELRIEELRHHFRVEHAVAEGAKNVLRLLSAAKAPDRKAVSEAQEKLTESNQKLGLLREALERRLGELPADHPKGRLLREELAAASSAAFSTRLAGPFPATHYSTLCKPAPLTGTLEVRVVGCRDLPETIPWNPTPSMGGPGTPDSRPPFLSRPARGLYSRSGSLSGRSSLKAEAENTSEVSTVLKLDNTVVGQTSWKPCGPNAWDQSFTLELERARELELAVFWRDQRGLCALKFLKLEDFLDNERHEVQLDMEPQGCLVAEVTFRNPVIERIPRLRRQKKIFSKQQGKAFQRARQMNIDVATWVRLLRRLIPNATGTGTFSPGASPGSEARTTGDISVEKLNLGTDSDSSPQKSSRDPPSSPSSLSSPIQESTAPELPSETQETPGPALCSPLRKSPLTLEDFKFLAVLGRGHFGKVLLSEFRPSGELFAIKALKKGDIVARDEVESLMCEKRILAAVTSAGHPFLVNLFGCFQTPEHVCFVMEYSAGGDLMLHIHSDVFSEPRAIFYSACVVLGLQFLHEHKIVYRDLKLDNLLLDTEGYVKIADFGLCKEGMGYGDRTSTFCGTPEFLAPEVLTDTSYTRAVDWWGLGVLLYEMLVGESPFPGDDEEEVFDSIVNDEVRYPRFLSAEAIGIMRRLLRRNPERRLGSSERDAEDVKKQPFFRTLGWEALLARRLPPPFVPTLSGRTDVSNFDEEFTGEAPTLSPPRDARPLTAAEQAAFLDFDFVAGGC
Casein kinase II subunit alpha (Homo sapiens), sequence (P68400 whole entry, looked up): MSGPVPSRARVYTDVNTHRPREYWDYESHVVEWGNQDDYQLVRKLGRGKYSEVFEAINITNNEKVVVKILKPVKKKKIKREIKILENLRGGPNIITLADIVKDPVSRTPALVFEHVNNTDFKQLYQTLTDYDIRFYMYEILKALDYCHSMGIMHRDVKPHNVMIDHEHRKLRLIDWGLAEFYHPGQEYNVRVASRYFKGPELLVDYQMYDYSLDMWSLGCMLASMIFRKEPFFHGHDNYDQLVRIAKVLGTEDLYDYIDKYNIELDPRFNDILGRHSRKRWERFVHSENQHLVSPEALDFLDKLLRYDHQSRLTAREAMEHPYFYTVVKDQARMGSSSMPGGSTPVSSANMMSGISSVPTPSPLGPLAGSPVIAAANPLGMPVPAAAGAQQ
Focal adhesion kinase 1 (Homo sapiens), sequence (Q05397 2-1052 limits assumed): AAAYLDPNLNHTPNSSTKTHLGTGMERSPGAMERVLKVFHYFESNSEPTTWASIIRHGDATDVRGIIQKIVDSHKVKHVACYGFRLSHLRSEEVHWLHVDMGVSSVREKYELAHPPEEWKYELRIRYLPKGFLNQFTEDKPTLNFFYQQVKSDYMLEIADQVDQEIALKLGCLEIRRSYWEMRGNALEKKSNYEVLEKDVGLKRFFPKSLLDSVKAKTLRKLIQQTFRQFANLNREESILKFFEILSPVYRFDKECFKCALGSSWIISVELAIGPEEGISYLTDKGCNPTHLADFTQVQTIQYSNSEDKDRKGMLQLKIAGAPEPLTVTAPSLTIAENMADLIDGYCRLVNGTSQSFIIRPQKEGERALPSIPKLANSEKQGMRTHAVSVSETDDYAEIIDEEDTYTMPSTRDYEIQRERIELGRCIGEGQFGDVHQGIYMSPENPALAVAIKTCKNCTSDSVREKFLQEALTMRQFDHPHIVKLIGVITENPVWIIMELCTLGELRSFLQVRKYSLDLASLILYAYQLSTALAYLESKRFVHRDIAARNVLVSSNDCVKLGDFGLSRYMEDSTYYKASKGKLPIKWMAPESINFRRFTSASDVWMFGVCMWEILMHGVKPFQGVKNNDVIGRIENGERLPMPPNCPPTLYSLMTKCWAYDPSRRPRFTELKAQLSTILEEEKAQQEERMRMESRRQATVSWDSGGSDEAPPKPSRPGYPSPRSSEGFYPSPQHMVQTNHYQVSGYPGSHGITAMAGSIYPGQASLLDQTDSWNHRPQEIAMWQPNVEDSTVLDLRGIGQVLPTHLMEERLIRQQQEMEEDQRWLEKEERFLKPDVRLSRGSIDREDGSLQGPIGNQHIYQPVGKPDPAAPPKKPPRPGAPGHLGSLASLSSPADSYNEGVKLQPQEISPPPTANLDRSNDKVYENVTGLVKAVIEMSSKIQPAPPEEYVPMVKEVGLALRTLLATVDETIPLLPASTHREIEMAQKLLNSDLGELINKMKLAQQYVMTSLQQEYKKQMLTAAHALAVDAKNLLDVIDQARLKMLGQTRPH
Vascular endothelial growth factor receptor 2 (Homo sapiens), sequence (P35968 whole entry): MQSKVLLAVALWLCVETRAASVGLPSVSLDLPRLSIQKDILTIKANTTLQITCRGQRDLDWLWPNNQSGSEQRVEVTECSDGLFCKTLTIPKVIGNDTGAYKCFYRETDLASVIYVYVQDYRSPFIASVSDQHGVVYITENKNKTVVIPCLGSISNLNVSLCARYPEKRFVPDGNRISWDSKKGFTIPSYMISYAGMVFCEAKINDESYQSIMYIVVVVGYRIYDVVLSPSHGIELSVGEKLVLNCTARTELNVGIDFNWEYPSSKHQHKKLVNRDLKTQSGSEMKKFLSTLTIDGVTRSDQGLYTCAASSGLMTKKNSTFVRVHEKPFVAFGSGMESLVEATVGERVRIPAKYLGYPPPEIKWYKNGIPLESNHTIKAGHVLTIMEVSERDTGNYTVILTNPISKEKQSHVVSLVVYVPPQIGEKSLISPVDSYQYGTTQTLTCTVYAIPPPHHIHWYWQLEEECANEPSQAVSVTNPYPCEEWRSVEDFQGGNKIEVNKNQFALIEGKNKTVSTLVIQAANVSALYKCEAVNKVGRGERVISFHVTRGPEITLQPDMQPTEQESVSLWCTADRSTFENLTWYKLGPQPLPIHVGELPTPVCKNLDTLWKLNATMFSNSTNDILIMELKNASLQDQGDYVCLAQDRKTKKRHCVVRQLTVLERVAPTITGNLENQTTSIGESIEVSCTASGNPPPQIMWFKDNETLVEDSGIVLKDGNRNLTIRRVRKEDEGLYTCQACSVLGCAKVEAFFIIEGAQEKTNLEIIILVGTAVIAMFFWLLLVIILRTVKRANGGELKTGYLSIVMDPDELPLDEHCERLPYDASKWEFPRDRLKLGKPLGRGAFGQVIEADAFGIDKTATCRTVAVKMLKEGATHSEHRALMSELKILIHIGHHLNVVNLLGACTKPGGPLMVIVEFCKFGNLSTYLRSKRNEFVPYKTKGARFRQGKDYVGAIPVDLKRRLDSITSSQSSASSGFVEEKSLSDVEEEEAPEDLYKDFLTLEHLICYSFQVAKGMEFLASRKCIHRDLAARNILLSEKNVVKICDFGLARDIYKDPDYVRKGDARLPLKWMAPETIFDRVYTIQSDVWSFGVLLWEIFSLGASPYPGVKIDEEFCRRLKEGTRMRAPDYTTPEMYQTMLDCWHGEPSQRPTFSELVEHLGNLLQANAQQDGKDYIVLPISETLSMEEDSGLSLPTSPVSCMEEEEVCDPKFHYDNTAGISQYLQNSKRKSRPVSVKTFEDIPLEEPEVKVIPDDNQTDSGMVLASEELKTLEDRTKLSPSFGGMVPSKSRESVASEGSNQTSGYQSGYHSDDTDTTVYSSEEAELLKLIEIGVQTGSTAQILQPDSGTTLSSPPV
Serine/threonine-protein kinase B-raf (Homo sapiens), P15056 [V600E], sequence (P15056 whole entry V600E): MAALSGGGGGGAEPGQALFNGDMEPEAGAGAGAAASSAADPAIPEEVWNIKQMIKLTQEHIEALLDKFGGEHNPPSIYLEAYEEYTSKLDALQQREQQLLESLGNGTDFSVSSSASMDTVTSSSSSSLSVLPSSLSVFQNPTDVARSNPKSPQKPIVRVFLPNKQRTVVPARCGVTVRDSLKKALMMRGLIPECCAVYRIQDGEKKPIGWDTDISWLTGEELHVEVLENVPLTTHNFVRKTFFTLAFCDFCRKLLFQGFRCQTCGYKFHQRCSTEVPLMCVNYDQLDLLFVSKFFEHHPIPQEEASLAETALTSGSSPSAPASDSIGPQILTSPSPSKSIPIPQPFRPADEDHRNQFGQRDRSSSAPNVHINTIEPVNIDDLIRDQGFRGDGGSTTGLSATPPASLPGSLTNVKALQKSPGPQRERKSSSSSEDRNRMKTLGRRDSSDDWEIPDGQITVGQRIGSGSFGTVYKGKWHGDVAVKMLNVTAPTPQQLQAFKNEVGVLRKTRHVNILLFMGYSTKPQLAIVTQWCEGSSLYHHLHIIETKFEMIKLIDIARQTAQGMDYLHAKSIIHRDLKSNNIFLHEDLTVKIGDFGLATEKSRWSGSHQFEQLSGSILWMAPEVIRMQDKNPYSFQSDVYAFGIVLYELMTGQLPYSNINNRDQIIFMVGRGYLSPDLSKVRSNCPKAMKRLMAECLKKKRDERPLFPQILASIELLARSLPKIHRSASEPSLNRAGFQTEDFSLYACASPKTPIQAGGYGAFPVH
T1 sequence (Q16539 whole entry): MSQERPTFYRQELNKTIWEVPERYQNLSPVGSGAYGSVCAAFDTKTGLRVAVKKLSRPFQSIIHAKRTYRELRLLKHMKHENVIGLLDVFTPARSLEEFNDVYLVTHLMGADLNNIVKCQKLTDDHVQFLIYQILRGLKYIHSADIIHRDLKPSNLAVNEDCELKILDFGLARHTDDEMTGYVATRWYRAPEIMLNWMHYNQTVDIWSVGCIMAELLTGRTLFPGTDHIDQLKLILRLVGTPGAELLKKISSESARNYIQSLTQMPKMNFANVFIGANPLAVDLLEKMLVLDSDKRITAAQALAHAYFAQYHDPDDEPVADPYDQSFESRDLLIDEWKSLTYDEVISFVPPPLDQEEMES

SMILES	inhibition [1]	IC50 [2]	inhibition [3]	IC50 [4]	inhibition [5]	inhibition [6]	inhibition [7]	inhibition [8]	inhibition [9]	inhibition [10]	inhibition [11]	inhibition [12]	inhibition [13]	inhibition [14]	inhibition [15]	inhibition [16]	inhibition [17]	inhibition [18]
O=C1c2ccc(Nc3ccc(F)cc3F)cc2CCc2c(OC[C@H](O)CO)cccc21	inactive	0.02 µM	inactive	100 µM	inactive	inactive	inactive	inactive	inactive	inactive	inactive	inactive	inactive	inactive	inactive	inactive	inactive	inactive
O=C1c2ccc(Nc3ccc(F)cc3F)cc2CCc2ccc(OCCCN3CCOCC3)cc21	inactive	0.008 µM	inactive	0.08 µM	inactive	inactive	inactive	inactive	inactive	inactive	inactive	inactive	inactive	inactive	inactive	inactive	inactive	inactive
CC1(C)OC[C@H](COc2cccc3c2CCc2cc(Nc4ccccc4N)ccc2C3=O)O1	inactive	1.04 µM	inactive	158 µM	inactive	inactive	inactive	inactive	inactive	inactive	inactive	inactive	inactive	inactive	inactive	inactive	inactive	inactive
COc1cccc2c1CCc1cc(Nc3ccccc3N)ccc1C2=O	inactive	0.08 µM	inactive	52.1 µM	inactive	inactive	inactive	inactive	inactive	inactive	inactive	inactive	inactive	inactive	inactive	inactive	inactive	inactive

The next lines start with the values.

inhibition [1]	IC50 [2]	inhibition [3]	IC50 [4]	inhibition [5]	inhibition [6]	inhibition [7]	inhibition [8]	inhibition [9]	inhibition [10]	inhibition [11]	inhibition [12]	inhibition [13]	inhibition [14]	inhibition [15]	inhibition [16]	inhibition [17]	inhibition [18]	SMILES
inactive	0.06 µM	inactive	0.53 µM	inactive	inactive	inactive	inactive	inactive	inactive	inactive	inactive	inactive	inactive	inactive	inactive	inactive	inactive	O=C1c2ccc(Nc3ccc(F)cc3F)cc2CCc2ccc(OC3CCOCC3)cc21
inactive	0.04 µM	inactive	5.4 µM	inactive	inactive	inactive	inactive	inactive	inactive	inactive	inactive	inactive	inactive	inactive	inactive	inactive	inactive	COc1ccc2c(c1)C(=O)c1ccc(Nc3ccc(F)cc3Cl)cc1CC2
inactive	0.02 µM	inactive	0.23 µM	inactive	inactive	inactive	inactive	inactive	inactive	inactive	inactive	inactive	inactive	inactive	inactive	inactive	inactive	CC1(C)OC[C@H](COc2ccc3c(c2)C(=O)c2ccc(Nc4ccc(F)cc4F)cc2CC3)O1
inactive	0.02 µM	inactive	37.3 µM	inactive	inactive	inactive	inactive	inactive	inactive	inactive	inactive	inactive	inactive	inactive	inactive	inactive	inactive	O=C1c2ccc(Nc3ccc(F)cc3F)cc2CCc2c(O)cccc21
inactive	0.4 µM	inactive	33.6 µM	inactive	inactive	inactive	inactive	inactive	inactive	inactive	inactive	inactive	inactive	inactive	inactive	inactive	inactive	COc1ccc2c(c1)C(=O)c1ccc(Nc3ccccc3C(F)(F)F)cc1CC2
